Reference: US10538486B2, “Hydroxamic acid type contrast agent containing radioisotope fluoride, preparation method and application thereof” (Institute of Nuclear Energy Research, Atomic Energy …, priority 2017, dated 2020)

Experiments:
Format in all cases: biochemical
Conditions in all cases: 4 concentrations in DMSO, 30 min at room temperature, fluorescence 355/460 nm, FIG. 5
[1] = target: T1, HDAC3 (Homo sapiens, UniProt O15379); assay: HDAC Fluorometric Assay Kit enzyme activity assay, HDAC3
T1 construct: purchased Enzolifesciences
T1 sequence (O15379 whole entry, species assumed): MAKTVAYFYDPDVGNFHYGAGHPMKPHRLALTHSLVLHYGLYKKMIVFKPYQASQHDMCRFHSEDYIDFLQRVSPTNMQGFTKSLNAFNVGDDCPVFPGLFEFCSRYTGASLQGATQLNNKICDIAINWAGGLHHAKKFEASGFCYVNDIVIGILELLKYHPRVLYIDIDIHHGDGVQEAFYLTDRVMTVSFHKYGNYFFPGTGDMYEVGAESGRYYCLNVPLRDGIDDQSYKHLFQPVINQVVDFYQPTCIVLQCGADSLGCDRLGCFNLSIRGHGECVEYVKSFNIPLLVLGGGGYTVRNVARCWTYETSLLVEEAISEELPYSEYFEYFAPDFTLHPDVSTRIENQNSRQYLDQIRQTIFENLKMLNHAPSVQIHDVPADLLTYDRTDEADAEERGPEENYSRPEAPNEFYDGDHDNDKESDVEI
T1 sequence (O75376 395-489 partner limits assumed, species assumed): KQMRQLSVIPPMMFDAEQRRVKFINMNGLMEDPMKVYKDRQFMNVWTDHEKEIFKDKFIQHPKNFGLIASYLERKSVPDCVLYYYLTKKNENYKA
Description: (§1) To further investigate whether the fluorine-18-hydroxamic acid-based compound is useful as a HDAC inhibitor, the inhibitory effect on HDAC is assayed with the fluorine-19-hydroxamic acid-based compound. The fluorine-18-hydroxamic acid-based compound and the fluorine-19-hydroxamic acid-based compound have the same chemical properties, except that the fluorine-18-hydroxamic acid-based compound has radioactivity, and the fluorine-19-hydroxamic acid-based compound has no radioactivity.
(§2) The fluorine-19-hydroxamic acid-based compound was diluted in dimethyl sulfoxide (DMSO) to give 4 different concentrations. The enzyme activity of various subtypes of HDAC was assayed with a HDAC Fluorometric Assay Kit (available from Enzolifesciences). The fluorine-19-hydroxamic acid-based compound (10 μL) and enzyme (15 μL) were added to a white opaque 96-well plate, and then a substrate (25 μL) was added and incubated for 30 min at room temperature. After incubation, the fluorescence intensity of the 96-well plate was measured on a microplate reader at an excitation wavelength of 355 nm and an emission wavelength of 460 nm, and the fluorescence intensity measured was analyzed by Graph Pad Prism 6 to calculate IC50 (as shown in FIG. 5).

[2] = target: T2, HDAC8 (Homo sapiens, UniProt Q9BY41); assay: HDAC Fluorometric Assay Kit enzyme activity assay, HDAC8
T2 construct: purchased Enzolifesciences
T2 sequence (Q9BY41 1-377): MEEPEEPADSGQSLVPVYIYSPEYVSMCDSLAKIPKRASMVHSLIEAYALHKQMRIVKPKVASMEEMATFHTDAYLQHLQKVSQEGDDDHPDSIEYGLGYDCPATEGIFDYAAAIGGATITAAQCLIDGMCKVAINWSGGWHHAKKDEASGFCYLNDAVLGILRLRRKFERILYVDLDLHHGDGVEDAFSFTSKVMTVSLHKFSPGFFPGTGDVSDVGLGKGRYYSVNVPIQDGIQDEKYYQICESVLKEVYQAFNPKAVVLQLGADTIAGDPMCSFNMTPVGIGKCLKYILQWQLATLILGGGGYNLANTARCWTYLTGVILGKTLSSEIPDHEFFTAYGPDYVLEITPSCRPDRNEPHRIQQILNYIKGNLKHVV
Description: as §1, §2

[3] = target: T3, HDAC6 (Homo sapiens, UniProt Q9UBN7); assay: HDAC Fluorometric Assay Kit enzyme activity assay, HDAC6
T3 construct: purchased Enzolifesciences
T3 sequence (Q9UBN7 1-1215): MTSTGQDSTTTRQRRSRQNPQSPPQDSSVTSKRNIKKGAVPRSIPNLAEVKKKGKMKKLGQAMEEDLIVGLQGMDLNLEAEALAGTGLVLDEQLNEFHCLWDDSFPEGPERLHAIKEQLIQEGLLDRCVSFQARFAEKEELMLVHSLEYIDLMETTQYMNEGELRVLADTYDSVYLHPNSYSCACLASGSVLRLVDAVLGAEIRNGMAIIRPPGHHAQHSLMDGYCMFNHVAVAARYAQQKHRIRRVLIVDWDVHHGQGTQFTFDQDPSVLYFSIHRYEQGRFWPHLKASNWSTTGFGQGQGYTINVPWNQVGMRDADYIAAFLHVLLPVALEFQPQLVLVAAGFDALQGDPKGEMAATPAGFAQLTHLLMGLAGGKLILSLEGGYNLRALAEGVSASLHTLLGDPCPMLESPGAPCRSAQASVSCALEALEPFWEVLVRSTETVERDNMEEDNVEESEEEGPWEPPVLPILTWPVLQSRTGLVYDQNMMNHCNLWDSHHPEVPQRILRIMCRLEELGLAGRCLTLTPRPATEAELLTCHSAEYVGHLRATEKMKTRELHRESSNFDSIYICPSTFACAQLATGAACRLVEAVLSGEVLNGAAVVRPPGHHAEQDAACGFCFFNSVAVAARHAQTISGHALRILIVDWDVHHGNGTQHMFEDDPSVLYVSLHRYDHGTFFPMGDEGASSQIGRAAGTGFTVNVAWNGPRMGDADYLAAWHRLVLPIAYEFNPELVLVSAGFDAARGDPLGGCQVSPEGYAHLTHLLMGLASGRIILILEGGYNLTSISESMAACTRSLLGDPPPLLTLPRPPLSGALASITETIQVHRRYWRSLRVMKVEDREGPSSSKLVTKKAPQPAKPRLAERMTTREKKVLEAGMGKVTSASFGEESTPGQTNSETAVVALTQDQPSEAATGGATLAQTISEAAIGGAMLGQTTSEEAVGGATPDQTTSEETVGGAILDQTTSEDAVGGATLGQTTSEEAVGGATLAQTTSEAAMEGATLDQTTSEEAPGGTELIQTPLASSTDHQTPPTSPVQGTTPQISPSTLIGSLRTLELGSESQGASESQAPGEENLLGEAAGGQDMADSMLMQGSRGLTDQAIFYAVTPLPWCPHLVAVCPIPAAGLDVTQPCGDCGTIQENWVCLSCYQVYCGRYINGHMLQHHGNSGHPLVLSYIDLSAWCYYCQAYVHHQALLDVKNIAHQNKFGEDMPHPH
Description: as §1, §2

Cc1cc(F)ccc1OCCCC(=O)NO
selectively inhibited: IC50, inhibitory effect on HDAC3 [1] | IC50, inhibitory effect on HDAC8 [2] | IC50, inhibitory effect on HDAC6 [3]
